Test results reported in patent US20250002475A1 (EPICS THERAPEUTICS, priority 2023, published 2025).

How the values were obtained:
[1] = tested on: Kasumi-1 cells; experiment: Kasumi-1 cellular viability assay (ATP-Lite, 72 h); assay type: cell-based; settings: Homo sapiens, ATP-Lite luminescence, % viability relative to DMSO
Procedure: Kasumi-1 cell line was purchased from ATCC (ATCC® CRL2724™). Cells were isolated from the peripheral blood of a child with acute myeloid leukemia (AML FAB M2) (in 2nd relapse after bone marrow transplantation) in 1989. Most cells are round. Kasumi-1 cells are observed to grow individually or in small clumps in suspension.
Kasumi-1 cells are cultured in RPMI-1640 (Gibco A10491-01) containing 10% heat-inactivated and 0.22 μm filtered FBS (Gibco 10270-106) at a density of 3E+5 and 3E+6 viable cell/mL following the certificate of analysis.
Cellular viability assay: Kasumi-1 cells were plated (50 μL) in 96-well cell culture microplates (PS, F-Bottom black, Cellstar, Greiner 655086) at final concentration of 15000 cells/well. The compounds of the invention were dissolved in DMSO, and a titration curve was generated at 1000× final concentration. Compounds were then diluted 500× in tissue culture medium (RPMI-1640, 10% FBS). Then 50 μl of test compound were added to Kasumi-1 cells in a final DMSO concentration of 0.1%, final volume 100 μl. A gas permeable sealing membrane was applied to the plate to prevent evaporation (Breathe-Easy sealing membrane, Sigma Z380059-1PK) and cells were incubated for 72 h at 37° C., 5% CO2, 80% RH. After 72h of treatment, the plates were taken out of the incubator and left for a few minutes at room temperature. 100 μl of the reconstituted reagent ATP-Lite One Step (Perkin Elmer, 6016739) was added to each well. The plates were shaken for 2 min at 700 rpm and placed in the dark for 10 minutes at room temperature before measurement of luminescence intensity with Envision instrument. The raw data were expressed in RLU. Results were expressed in % of viability relative to DMSO control and an IC50 was calculated based on the concentration-response profile of individual compounds.

[2] = target: T1, recombinant METTL3/METTL14 complex (Homo sapiens, UniProt Q86U44); experiment: METTL3/14 Scintillation Proximity Assay (SPA), RNA methyltransferase activity; assay type: biochemical; settings: 5.31 nM METTL3/14 complex, 250 nM RNA substrate, 1 μM 3H-SAM, 90 min; for compounds marked * best of the two separated forms
T1 construct: purchased Active Motif 311970; host or cells: Sf9 cells
T1 sequence (Q86U44 whole entry): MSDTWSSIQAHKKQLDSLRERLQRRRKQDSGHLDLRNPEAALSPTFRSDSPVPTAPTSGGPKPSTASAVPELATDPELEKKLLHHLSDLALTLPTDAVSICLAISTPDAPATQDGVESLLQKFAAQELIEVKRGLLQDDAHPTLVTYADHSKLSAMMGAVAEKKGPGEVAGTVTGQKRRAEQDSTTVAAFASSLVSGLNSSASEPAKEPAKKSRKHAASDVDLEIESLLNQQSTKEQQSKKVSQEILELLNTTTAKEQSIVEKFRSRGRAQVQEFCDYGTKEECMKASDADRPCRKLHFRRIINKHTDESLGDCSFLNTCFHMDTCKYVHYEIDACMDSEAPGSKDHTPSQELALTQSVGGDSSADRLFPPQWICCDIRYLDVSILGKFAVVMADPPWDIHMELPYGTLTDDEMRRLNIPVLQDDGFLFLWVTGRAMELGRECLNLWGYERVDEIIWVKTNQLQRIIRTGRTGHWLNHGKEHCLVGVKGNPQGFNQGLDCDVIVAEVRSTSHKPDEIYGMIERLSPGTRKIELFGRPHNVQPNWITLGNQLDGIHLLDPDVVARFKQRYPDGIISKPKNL
T1 sequence (Q9HCE5 whole entry partner): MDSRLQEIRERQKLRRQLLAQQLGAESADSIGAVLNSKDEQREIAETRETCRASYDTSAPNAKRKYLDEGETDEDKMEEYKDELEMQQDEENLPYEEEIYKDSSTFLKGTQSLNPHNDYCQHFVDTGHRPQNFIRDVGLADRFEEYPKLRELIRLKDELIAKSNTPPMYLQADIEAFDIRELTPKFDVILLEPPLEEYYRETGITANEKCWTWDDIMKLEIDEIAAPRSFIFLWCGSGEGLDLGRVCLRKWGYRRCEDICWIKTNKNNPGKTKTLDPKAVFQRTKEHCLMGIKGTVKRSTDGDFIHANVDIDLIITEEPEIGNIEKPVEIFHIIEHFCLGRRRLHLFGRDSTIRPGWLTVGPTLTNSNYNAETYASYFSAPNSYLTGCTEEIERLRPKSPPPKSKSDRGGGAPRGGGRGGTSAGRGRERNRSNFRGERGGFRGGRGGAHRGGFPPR

Compound	IC50 [1]	IC50 [2]
COc1cc(-c2cn(Cn3cnc(N4CCC[C@@H](NCC5CCC5)C4)cc3=O)nn2)c2cn[nH]c2c1 [Compound 041, (R)-6-(3-((cyclobutylmethyl)amino)piperidin-1-yl)-3-((4-(6-methoxy-1H-indazol-4-yl)-1H-1,2,3-triazol-1-yl)methyl)pyrimidin-4(3H)-one]	> 5000 nM	50 to 500 nM
c1ncc(C2CC2)cc1-c1cn(C2(c3ccc(N4CCC[C@H](NCC5CC5)C4)cn3)COC2)nn1 [Compound 351, (S)—N-(cyclopropylmethyl)-1-(6-(3-(4-(5-cyclopropylpyridin-3-yl)-1H-1,2,3-triazol-1-yl)oxetan-3-yl)pyridin-3-yl)piperidin-3-amine]	500 to 5000 nM	50 to 500 nM
COc1cc(-c2cn(Cc3cnc(N4CCCC(NCC5CCC5)C4)nc3)nn2)c2cn[nH]c2c1 (stereo not drawn) [Compound 046, N-(cyclobutylmethyl)-1-(5-((4-(6-methoxy-1H-indazol-4-yl)-1H-1,2,3-triazol-1-yl)methyl)pyrimidin-2-yl)piperidin-3-amine]	> 5000 nM	50 to 500 nM
COc1cc(-c2cn(Cc3n[nH]c(N4CCC[C@@H](NCC5CCC5)C4)cc3=O)nn2)c2cn[nH]c2c1 [Compound 039, (R)-6-(3-((cyclobutylmethyl)amino)piperidin-1-yl)-3-((4-(6-methoxy-1H-indazol-4-yl)-1H-1,2,3-triazol-1-yl)methyl)pyridazin-4(1H)-one]	> 5000 nM	≤ 50 nM
COc1cc(-c2cn(Cc3ncc(N4CCCC(NCC5CCC5)C4)cn3)nn2)c2cn[nH]c2c1 (stereo not drawn) [Compound 043, N-(cyclobutylmethyl)-1-(2-((4-(6-methoxy-1H-indazol-4-yl)-1H-1,2,3-triazol-1-yl)methyl)pyrimidin-5-yl)piperidin-3-amine]	> 5000 nM	≤ 50 nM
COc1cc(-c2cn(Cc3ccc(N4CCCC(NCC5CCC5)C4)c(=O)[nH]3)nn2)c2cn[nH]c2c1 (stereo not drawn) [Compound 052, 3-(3-((cyclobutylmethyl)amino)piperidin-1-yl)-6-((4-(6-methoxy-1H-indazol-4-yl)-1H-1,2,3-triazol-1-yl)methyl)pyridin-2(1H)-one]	> 5000 nM	50 to 500 nM
CC(NC(=S)c1cc(=O)n2ccccc2n1)c1ccc(N2CCC[C@@H](NCC3CCC3)C2)nn1 (mixture of isomers) [Compound 111, N-(1-(6-((R)-3-((cyclobutylmethyl)amino)piperidin-1-yl)pyridazin-3-yl)ethyl)-4-oxo-4H-pyrido[1,2-a]pyrimidine-2-carbothioamide]		50 to 500 nM
Cc1cc(N2CCC[C@@H](NCC3CC3)C2)cnc1C(C)n1cc(-c2cncc(C3CC3)c2)nn1 (single isomer, unassigned) [Compound 318]		≤ 50 nM
COc1cnc(C)c(-c2cn(C(C)n3ccc(N4CCC[C@@H](NCC5CCC5)C4)cc3=O)nn2)c1 (stereo partly drawn) [Compound 114, 4-((R)-3-((cyclobutylmethyl)amino)piperidin-1-yl)-1-(1-(4-(5-methoxy-2-methylpyridin-3-yl)-1H-1,2,3-triazol-1-yl)ethyl)pyridin-2(1H)-one]		≤ 50 nM
